Assay results: the supplement of paper PMC4932681

What was measured:
BT-474 Tam1 [1] = assay: drug sensitivity score (DSS) (DSS (dimensionless)); higher = more sensitive; extreme values may be limits of the assay; details: 4-OH-tamoxifen in medium 1 µM; 72 h
Procedure: (§1)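 FIMM FO2B library drugs were tested at 5 concentrations (10,000-fold range) for 72 h, with CellTiter-Glo viability normalised to DMSO and benzethonium chloride controls. The Drug Sensitivity Score (DSS) is computed from the fitted logistic dose-response curve (area-based; 0 = inactive). Resistant lines and the 'in 1µM tamoxifen' arms were tested in 1 µM 4-OH-tamoxifen.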

BT-474 Tam2 [2] = assay: as above; details: 4-OH-tamoxifen in medium 1 µM; 72 h
Procedure: as §1

BT-474 [3] = assay: as above; details: 72 h
Procedure: as §1

MCF-7 Tam1 [4] = assay: as above; details: 4-OH-tamoxifen in medium 1 µM; 72 h
Procedure: as §1

MCF-7 [5] = assay: as above; details: 72 h
Procedure: as §1

T-47D Tam1 [6] = assay: as above; details: 4-OH-tamoxifen in medium 1 µM; 72 h
Procedure: as §1

T-47D Tam2 = assay: as above; details: 4-OH-tamoxifen in medium 1 µM; 72 h
Procedure: as §1

T-47D [7] = assay: as above; details: 72 h
Procedure: as §1

ZR-75-1 Tam1 [8] = assay: as above; details: 4-OH-tamoxifen in medium 1 µM; 72 h
Procedure: as §1

ZR-75-1 Tam2 [9] = assay: as above; details: 4-OH-tamoxifen in medium 1 µM; 72 h
Procedure: as §1

ZR-75-1 [10] = assay: as above; details: 72 h
Procedure: as §1

BT-474 Tam2 [11] = assay: relative IC50 (midpoint of fitted logistic curve, plateau may be below 50% inhibition; CellTiter-Glo viability); higher = less potent; details: 4-OH-tamoxifen in medium 1 µM; 72 h
Procedure: (§2)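 FIMM FO2B library drugs were plated at 5 concentrations spanning a 10,000-fold range in 384-well plates. Cells were incubated for 72 h at 37 °C and viability was read by CellTiter-Glo, normalised to DMSO (0% inhibition) and 100 µM benzethonium chloride (100% inhibition). IC50 values come from logistic dose-response fits (Breeze pipeline). Tamoxifen-resistant lines and the 'in 1µM tamoxifen' parental arms were tested in medium with 1 µM 4-OH-tamoxifen.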

BT-474 [12] = assay: as above; details: 72 h
Procedure: as §2

MCF-7 Tam1 [13] = assay: as above; details: 4-OH-tamoxifen in medium 1 µM; 72 h
Procedure: as §2

MCF-7 [14] = assay: as above; details: 72 h
Procedure: as §2

T-47D Tam1 [15] = assay: as above; details: 4-OH-tamoxifen in medium 1 µM; 72 h
Procedure: as §2

T-47D [16] = assay: as above; details: 72 h
Procedure: as §2

ZR-75-1 Tam1 [17] = assay: as above; details: 4-OH-tamoxifen in medium 1 µM; 72 h
Procedure: as §2

ZR-75-1 [18] = assay: as above; details: 72 h
Procedure: as §2

BT-474 Tam1 [19] = assay: as above; details: 4-OH-tamoxifen in medium 1 µM; 72 h
Procedure: as §2

ZR-75-1 Tam2 [20] = assay: as above; details: 4-OH-tamoxifen in medium 1 µM; 72 h
Procedure: as §2

| SMILES | drug sensitivity score (BT-474 Tam1 [1]) | drug sensitivity score (BT-474 Tam2 [2]) | drug sensitivity score (BT-474 [3]; 4-OH-tamoxifen in medium 0 µM) | drug sensitivity score (BT-474 [3]; 4-OH-tamoxifen in medium 1 µM) | drug sensitivity score (MCF-7 Tam1 [4]) | drug sensitivity score (MCF-7 [5]; 4-OH-tamoxifen in medium 0 µM) | drug sensitivity score (MCF-7 [5]; 4-OH-tamoxifen in medium 1 µM) | drug sensitivity score (T-47D Tam1 [6]) | drug sensitivity score (T-47D Tam2) | drug sensitivity score (T-47D [7]; 4-OH-tamoxifen in medium 0 µM) | drug sensitivity score (T-47D [7]; 4-OH-tamoxifen in medium 1 µM) | drug sensitivity score (ZR-75-1 Tam1 [8]) | drug sensitivity score (ZR-75-1 Tam2 [9]) | drug sensitivity score (ZR-75-1 [10]; 4-OH-tamoxifen in medium 0 µM) | drug sensitivity score (ZR-75-1 [10]; 4-OH-tamoxifen in medium 1 µM) | relative IC50 (BT-474 Tam2 [11]) [µM] | relative IC50 (BT-474 [12]; 4-OH-tamoxifen in medium 0 µM) [µM] | relative IC50 (BT-474 [12]; 4-OH-tamoxifen in medium 1 µM) [µM] | relative IC50 (MCF-7 Tam1 [13]) [µM] | relative IC50 (MCF-7 [14]; 4-OH-tamoxifen in medium 0 µM) [µM] | relative IC50 (T-47D Tam1 [15]) [µM] | relative IC50 (T-47D [16]; 4-OH-tamoxifen in medium 1 µM) [µM] | relative IC50 (ZR-75-1 Tam1 [17]) [µM] | relative IC50 (ZR-75-1 [18]; 4-OH-tamoxifen in medium 0 µM) [µM] | relative IC50 (BT-474 Tam1 [19]) [µM] | relative IC50 (MCF-7 [14]; 4-OH-tamoxifen in medium 1 µM) [µM] | relative IC50 (T-47D [16]; 4-OH-tamoxifen in medium 0 µM) [µM] | relative IC50 (ZR-75-1 [18]; 4-OH-tamoxifen in medium 1 µM) [µM] | relative IC50 (ZR-75-1 Tam2 [20]) [µM] |
| --- | --- | --- | --- | --- | --- | --- | --- | --- | --- | --- | --- | --- | --- | --- | --- | --- | --- | --- | --- | --- | --- | --- | --- | --- | --- | --- | --- | --- | --- |
| Cc1ccc(Nc2nccc(N(C)c3ccc4c(C)n(C)nc4c3)n2)cc1S(N)(=O)=O [Pazopanib] | 0.0636 | 0 | 0 | 0 | 0 | 0 | 0.177 | 0 | 0.821 | 0.231 | 0 | 0 | 0.0921 | 0 | 0 | > 10 | > 10 | > 10 | > 10 | > 10 | > 10 | > 10 | > 10 | > 10 |  |  |  |  |  |
| O=C1c2c(O)ccc(O)c2C(=O)c2c(NCCNCCO)ccc(NCCNCCO)c21 [Mitoxantrone] | 0 | 0 | 0 | 0 | 0 | 0 | 0 | 7.08 | 1.21 | 2.79 | 0 | 1.67 | 4.66 | 3.03 | 2.35 | > 1 | > 1 | > 1 | > 1 | > 1 | 0.0368 | > 1 |  |  | > 1 | > 1 |  |  |  |
| Nc1nc(Cl)nc2c1ncn2[C@@H]1O[C@H](CO)[C@@H](O)[C@@H]1F [Clofarabine] | 0 | 0 | 0 | 0 | 0 | 4.41 | 2.44 | 5.4 | 1.77 | 1.21 | 0.982 | 1.26 | 0.782 | 0.522 | 0.104 | > 10 | > 10 | > 10 | > 10 | 0.49 | 0.616 |  |  |  | > 10 |  | 4.1 |  |  |
| COc1cc(F)c(F)c(Nc2ccc(I)cc2F)c1NS(=O)(=O)C1(C[C@H](O)CO)CC1 [Refametinib (RDEA119)] | 3.68 | 0.629 | 0 | 6.44 | 3.77 | 3.75 | 3.88 | 4.09 | 1.2 | 1.6 | 0.324 | 0 | 0 | 0.912 | 0 |  | > 10 | 0.7 | 0.389 | 1.41 | 0.335 |  |  |  | 0.571 | 1.08 |  | > 10 |  |
| CN(C)CCN1C(=O)c2cccc3cc(N)cc(c23)C1=O [Amonafide] | 0 | 0 | 0 | 0 | 0 | 2.63 | 0.126 | 0 | 0 | 0.496 | 0 | 0.0369 | 0.594 | 1.49 | 0.169 | > 10 | > 10 | > 10 | > 10 | 3.26 | > 10 | > 10 |  | 3.51 | > 10 |  |  |  |  |
| CO[C@@]12[C@H](COC(N)=O)C3=C(C(=O)C(C)=C(N)C3=O)N1C[C@@H]1N[C@@H]12 [Mitomycin C] | 0 | 0 | 0 | 0 | 0 | 0.369 | 0.228 | 1.35 | 0.0558 | 0.988 | 0 | 1.75 | 1.28 | 0.734 | 0.75 | > 10 | > 10 | > 10 | > 10 |  | 3.57 | > 10 |  |  | > 10 |  |  |  |  |
| C[C@]1(O)C[C@@H](c2nc(-c3ccc4ccc(-c5ccccc5)nc4c3)c3c(N)nccn32)C1 [Linsitinib (OSI-906)] | 0 | 0 | 0 | 0.462 | 3.94 | 4.58 | 5.68 | 7.18 | 1.19 | 2.48 | 2.45 | 0.0832 | 0.681 | 0 | 1.21 | > 10 | > 10 |  | 1.17 | 1.7 | 1.82 | 1.87 |  | > 10 | > 10 | 1.62 |  |  |  |
| CN1CCc2c(c3ccccc3n2Cc2ccc(C(=O)NO)cc2)C1 [Tubastatin A] | 1.77 | 0.145 | 0 | 0.725 | 0 | 0 | 0.884 | 0 | 0 | 0 | 0 | 0.0626 | 0.301 | 0.27 | 0.715 |  | > 10 |  | > 10 |  | > 10 | > 10 |  |  | 3.12 |  | > 10 |  |  |
| O=c1[nH]c(=O)n([C@H]2C[C@H](O)[C@@H](CO)O2)cc1F [Floxuridine] | 0 | 0 | 1.78 | 1.44 | 0 | 0.48 | 0 | 5.88 | 1.26 | 1.05 | 0 | 0.801 | 4.86 | 6.61 | 0.31 | > 10 | 2.41 |  | > 10 |  | 1.39 | > 10 |  |  | > 10 | > 10 |  |  |  |
| C1CN1c1nc(N2CC2)nc(N2CC2)n1 [Triethylenemelamine] | 0 | 0 | 0 | 0 | 0 | 0 | 0 | 0.0501 | 0.12 | 0 | 0 | 0 | 0 | 0 | 0 | > 10 | > 10 | > 10 | > 10 | > 10 |  | > 10 | > 10 | > 10 | > 10 | > 10 | > 10 | > 10 | > 10 |
